Biological target: T1, Vc (6-4) PL (Vibrio cholerae, UniProt Q9KLD7)
T1 construct: gene VC_A0809
Experiment: X-ray crystallography, […] Å
Format: binding
Conditions: 100 K

T1 sequence (Q9KLD7 1-516 limits assumed): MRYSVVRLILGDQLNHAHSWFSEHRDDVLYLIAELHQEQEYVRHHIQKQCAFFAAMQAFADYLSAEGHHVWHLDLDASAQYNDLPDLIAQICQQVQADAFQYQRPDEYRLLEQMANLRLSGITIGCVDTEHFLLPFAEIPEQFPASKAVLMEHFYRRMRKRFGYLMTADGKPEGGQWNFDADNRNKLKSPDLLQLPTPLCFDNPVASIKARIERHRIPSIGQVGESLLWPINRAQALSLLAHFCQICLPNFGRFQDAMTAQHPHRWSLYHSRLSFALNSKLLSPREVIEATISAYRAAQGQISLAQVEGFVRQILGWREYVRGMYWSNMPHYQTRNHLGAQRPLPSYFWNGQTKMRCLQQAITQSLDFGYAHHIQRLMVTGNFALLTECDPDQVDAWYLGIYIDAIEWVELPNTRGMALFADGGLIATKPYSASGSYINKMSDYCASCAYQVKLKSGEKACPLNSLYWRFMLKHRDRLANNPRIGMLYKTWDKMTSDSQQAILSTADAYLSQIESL

`Cc1nc2c(=O)[nH]c(=O)nc-2n(C[C@H](O)[C@H](O)[C@H](O)CO)c1C` [DMRL] was tested, and the “X-ray crystallography, 2.5 Å” value (photoantenna site in alpha/beta domain, co-purified) was “there is a very well-defined electron density of the DMRL and interacting amino acid residues”.
With `Cc1cc2nc3c(=O)[nH]c(=O)nc-3n(C[C@H](O)[C@H](O)[C@H](O)COP(=O)(O)OP(=O)(O)OC[C@H]3O[C@@H](n4cnc5c(N)ncnc54)[C@H](O)[C@@H]3O)c2cc1C` [FAD] the “X-ray crystallography, 2.5 Å” value (catalytic site in alpha-helical domain, co-purified, redox state not stated) was “FAD has a U-shaped conformation in the α-helical domain”.
In the case of `[S]12[Fe]3[S]4[Fe]1[S]1[Fe]2[S]3[Fe]41` [[4Fe-4S] cluster], the “X-ray crystallography, 2.5 Å” value (bound by Cys357, Cys445, Cys448, Cys461, covalent coordination, co-purified aerobically) is reported as “Cys357, Cys445, Cys448, and Cys461 sulfide atoms make bonds with Fe atoms in the cluster”.
